Test results from publication doi:10.64898/2025.12.31.695415v1, “Correlated dynamics, reactive conformations and non-Arrhenius behaviour in the temperature-dependence of enzyme activity: triosephosphate isomerase” (biorxiv, 2025).

Target: T1, meso-TIM (Saccharomyces cerevisiae, UniProt P00942)
T1 construct: gene TPI1; N-terminal His6 tag, pET28b, E. coli BL21(DE3); dimer; PDB 1NEY is the simulation model
T1 sequence (P00942 2-248): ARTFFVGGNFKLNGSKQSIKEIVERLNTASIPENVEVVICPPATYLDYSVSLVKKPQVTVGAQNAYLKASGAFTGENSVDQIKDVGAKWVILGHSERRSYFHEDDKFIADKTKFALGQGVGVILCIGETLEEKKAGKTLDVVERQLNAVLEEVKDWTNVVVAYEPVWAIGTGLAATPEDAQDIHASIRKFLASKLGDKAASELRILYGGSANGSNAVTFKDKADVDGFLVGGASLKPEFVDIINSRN
Assay: stopped-flow, GAPD-coupled assay, […] nm
Assay type: biochemical
Conditions: 50 mM HEPES pH 7.4, 150 mM NaCl, 10 mM MgCl2, 2.5 mM (NH4)2SO4; two temperatures

In the case of `O=C(CO)COP(=O)(O)O` [dihydroxyacetone phosphate], the Km is reported as “substrate binding kinetics were determined at two temperatures”.
